Measurements as given in publication PMC11990924, “Inhibition of Tyrosinase and Melanogenesis by Carboxylic Acids: Mechanistic Insights and Safety Evaluation” (Molecules, 2025).

Key:
B16-F10 cells = test: Proteomic analysis of B16-F10 cells (DIA mass spectrometry); format: cell-based, mouse
Protocol: B16-F10 cells were treated with various concentrations of carboxylic acids following the same culture protocol used for melanin inhibition assays. After treatment, the cells were collected and submitted to Shanghai Zhongke Xinming Biotechnology Co., Ltd. (Shanghai, China) for proteomics analysis. The collected cells were lysed with an appropriate volume of SDT lysis buffer (4% SDS, 100 mM Tris-HCl, pH 7.6) to extract proteins. DTT was added to reduce disulfide bonds, followed by incubation at room temperature for 1 h. Subsequently, iodoacetamide was added, and the mixture was reacted in the dark at room temperature for 30 min. The proteins were then digested with trypsin overnight. The resulting peptide fragments were desalted using a C18 cartridge. After freeze-drying, the peptides were resuspended in 40 μL of 0.1% formic acid solution, and the peptide concentration was determined by measuring the absorbance at 280 nm. An appropriate amount of internal reference for targeted proteomics (iRT) standard peptides was added to each sample for data-independent acquisition (DIA) mass spectrometry analysis. Chromatographic separation was performed using a nanoflow Evosep One system. The separated samples were analyzed by DIA mass spectrometry using a timsTOF Pro mass spectrometer (Bruker Daltonics, Bremen, Germany). Detection was conducted in positive-ion mode, with MS and MS/MS scanning ranges set from 100 to 1700 m/z. MS2 data acquisition was performed in DIA mode, with four TIMS scan windows, each accumulating for 100 ms. In PASEF mode, the collision energy varied linearly with ion mobility (1/K0), ranging from 20 to 59 eV for ions with 1/K0 values between 0.85 and 1.30 Vs/cm^2. The DIA data were processed using Spectronaut 19 software with the following parameter settings: retention time prediction type set to dynamic iRT, interference correction on MS2 level enabled, cross-run normalization enabled, maximum missed cleavage sites set to 2, fixed modification set to Carbamidomethyl (C), and variable modifications set to Oxidation (M) and Acetyl (Protein N-term). All results were filtered with a Q-value cutoff of 0.01, corresponding to a false discovery rate (FDR) of less than 1%. The target protein set was annotated using Blast2GO (version BLASTP 2.8.0+). The process included four steps: sequence alignment (Blast), GO mapping, GO annotation, and additional annotation augmentation using InterProScan. Using the KOBAS 3.0 software, KEGG pathway annotation was performed on the target protein set. Fisher’s exact test was employed to compare the distribution of GO categories in the target protein set and the overall protein set, thereby conducting enrichment analysis of the GO annotations in the target protein set. The proteomics dataset generated in this study has been made publicly available through the PRIDE ProteomeXchange Consortium with the dataset identifier PXD061919.

mushroom tyrosinase = mushroom tyrosinase (Agaricus bisporus, UniProt C7FF04); test: Inhibition of mushroom tyrosinase activity (L-DOPA, OD475); format: biochemical; conditions: 6 mM; read-out: tyrosinase inhibition rate
Sequence of mushroom tyrosinase (C7FF04 2-392): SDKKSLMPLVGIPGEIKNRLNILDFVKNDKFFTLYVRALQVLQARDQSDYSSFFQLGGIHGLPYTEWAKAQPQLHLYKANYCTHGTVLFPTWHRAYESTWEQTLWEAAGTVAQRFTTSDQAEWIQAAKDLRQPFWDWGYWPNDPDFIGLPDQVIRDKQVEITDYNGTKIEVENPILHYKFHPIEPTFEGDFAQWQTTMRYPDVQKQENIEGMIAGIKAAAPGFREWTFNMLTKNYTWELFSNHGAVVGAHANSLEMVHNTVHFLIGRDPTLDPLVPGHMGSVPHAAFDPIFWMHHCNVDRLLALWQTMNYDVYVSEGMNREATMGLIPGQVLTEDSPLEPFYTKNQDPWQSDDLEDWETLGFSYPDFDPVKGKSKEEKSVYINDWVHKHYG
Protocol: L-DOPA solution (5 mM) and tyrosinase (400 U/mL) (Sigma-Aldrich, St. Louis, MO, USA) were prepared in PBS buffer (pH 7.4) (Qingdao Hope Bio-Technology Co., Ltd., Qingdao, China). A reaction mixture was prepared by combining 240 μL of carboxylic acid at various concentrations, 360 μL of L-DOPA solution, and 120 μL of tyrosinase. […] Deionized water was used as the control.

O=C(O)C(O)Cc1ccccc1 (centres unmarked) [3-phenyllactic acid]
ATP8 protein fold change (B16-F10 cells; 6 mM vs control, Table S1): 0.4618
Aanat protein fold change (B16-F10 cells; 6 mM vs control, Table S1): 2.208
Acta1 protein fold change (B16-F10 cells; 6 mM vs control, Table S1): 2.921
Adgrg1 protein fold change (B16-F10 cells; 6 mM vs control, Table S1): 0.4728
Agtrap protein fold change (B16-F10 cells; 6 mM vs control, Table S1): 0.4687
Antxr2 protein fold change (B16-F10 cells; 6 mM vs control, Table S1): 0.4747
Aplp2 protein fold change (B16-F10 cells; 6 mM vs control, Table S1): 0.2246
Apob protein fold change (B16-F10 cells; 6 mM vs control, Table S1): 0.4962
Apoh protein fold change (B16-F10 cells; 6 mM vs control, Table S1): 0.4857
App protein fold change (B16-F10 cells; 6 mM vs control, Table S1): 0.3729
Arl6ip1 protein fold change (B16-F10 cells; 6 mM vs control, Table S1): 0.4901
Bace2 protein fold change (B16-F10 cells; 6 mM vs control, Table S1): 0.4069
Bcl9 protein fold change (B16-F10 cells; 6 mM vs control, Table S1): 2.336
Bltp1 protein fold change (B16-F10 cells; 6 mM vs control, Table S1): 2.099
Bst2 protein fold change (B16-F10 cells; 6 mM vs control, Table S1): 0.3949
CUB domain-containing protein (Q3TD85) fold change (B16-F10 cells; 6 mM vs control, Table S1): 0.4924
Cav2 protein fold change (B16-F10 cells; 6 mM vs control, Table S1): 0.4909
Cdc42se1 protein fold change (B16-F10 cells; 6 mM vs control, Table S1): 0.3683
Cisd2 protein fold change (B16-F10 cells; 6 mM vs control, Table S1): 0.4369
Cks2 protein fold change (B16-F10 cells; 6 mM vs control, Table S1): 0.4644
Ctns protein fold change (B16-F10 cells; 6 mM vs control, Table S1): 0.3087
Cxne protein fold change (B16-F10 cells; 6 mM vs control, Table S1): 0.3753
Cyp51a1 protein fold change (B16-F10 cells; 6 mM vs control, Table S1): 0.3449
Ddit3 protein fold change (B16-F10 cells; 6 mM vs control, Table S1): 2.105
Dgcr2 protein fold change (B16-F10 cells; 6 mM vs control, Table S1): 0.4147
Dnajc19 protein fold change (B16-F10 cells; 6 mM vs control, Table S1): 0.3587
E2f5 protein fold change (B16-F10 cells; 6 mM vs control, Table S1): 2.473
Eng protein fold change (B16-F10 cells; 6 mM vs control, Table S1): 0.3635
Entpd7 protein fold change (B16-F10 cells; 6 mM vs control, Table S1): 0.3998
Epb41l4b protein fold change (B16-F10 cells; 6 mM vs control, Table S1): 2.181
Fam174b protein fold change (B16-F10 cells; 6 mM vs control, Table S1): 0.4339
Fau protein fold change (B16-F10 cells; 6 mM vs control, Table S1): 4.21
Fosl2 protein fold change (B16-F10 cells; 6 mM vs control, Table S1): 5.488
Fv4 protein fold change (B16-F10 cells; 6 mM vs control, Table S1): 0.4177
Ginm1 protein fold change (B16-F10 cells; 6 mM vs control, Table S1): 0.3741
Glmp protein fold change (B16-F10 cells; 6 mM vs control, Table S1): 0.4495
H1-0 protein fold change (B16-F10 cells; 6 mM vs control, Table S1): 2.057
H3c14 protein fold change (B16-F10 cells; 6 mM vs control, Table S1): 3.134
Hbbt1 protein fold change (B16-F10 cells; 6 mM vs control, Table S1): 0.388
Hmgcs1 protein fold change (B16-F10 cells; 6 mM vs control, Table S1): 0.3916
Hspa13 protein fold change (B16-F10 cells; 6 mM vs control, Table S1): 0.4084
Ifi205 protein fold change (B16-F10 cells; 6 mM vs control, Table S1): 2.571
Ifitm2 protein fold change (B16-F10 cells; 6 mM vs control, Table S1): 0.4697
Il10rb protein fold change (B16-F10 cells; 6 mM vs control, Table S1): 0.3763
Itih3 protein fold change (B16-F10 cells; 6 mM vs control, Table S1): 0.3529
Itm2b protein fold change (B16-F10 cells; 6 mM vs control, Table S1): 0.2428
Itm2c protein fold change (B16-F10 cells; 6 mM vs control, Table S1): 0.3416
Kbtbd2 protein fold change (B16-F10 cells; 6 mM vs control, Table S1): 0.4177
Kcnj13 protein fold change (B16-F10 cells; 6 mM vs control, Table S1): 0.3629
Laptm4a protein fold change (B16-F10 cells; 6 mM vs control, Table S1): 0.2076
Laptm4b protein fold change (B16-F10 cells; 6 mM vs control, Table S1): 0.3669
Ldha protein fold change (B16-F10 cells; 6 mM vs control, Table S1): 2.104
Ldlr protein fold change (B16-F10 cells; 6 mM vs control, Table S1): 0.4018
Mast4 protein fold change (B16-F10 cells; 6 mM vs control, Table S1): 2.12
Met protein fold change (B16-F10 cells; 6 mM vs control, Table S1): 0.4986
Mfap3 protein fold change (B16-F10 cells; 6 mM vs control, Table S1): 0.4088
Mlana protein fold change (B16-F10 cells; 6 mM vs control, Table S1): 0.2524
Mtfr2 protein fold change (B16-F10 cells; 6 mM vs control, Table S1): 0.4374
Myl6 protein fold change (B16-F10 cells; 6 mM vs control, Table S1): 0.4951
Ndfip1 protein fold change (B16-F10 cells; 6 mM vs control, Table S1): 0.3294
Nfatc2 protein fold change (B16-F10 cells; 6 mM vs control, Table S1): 0.2366
Nrp1 protein fold change (B16-F10 cells; 6 mM vs control, Table S1): 0.4865
Nrp2 protein fold change (B16-F10 cells; 6 mM vs control, Table S1): 0.3408
Pacsin2 protein fold change (B16-F10 cells; 6 mM vs control, Table S1): 0.3403
Phyhd1 protein fold change (B16-F10 cells; 6 mM vs control, Table S1): 2.286
Pmel protein fold change (B16-F10 cells; 6 mM vs control, Table S1): 0.4916
Psap protein fold change (B16-F10 cells; 6 mM vs control, Table S1): 0.4703
Ptprs protein fold change (B16-F10 cells; 6 mM vs control, Table S1): 0.4896
Rad51ap1 protein fold change (B16-F10 cells; 6 mM vs control, Table S1): 0.4291
Rnf220 protein fold change (B16-F10 cells; 6 mM vs control, Table S1): 0.4969
Sdc1 protein fold change (B16-F10 cells; 6 mM vs control, Table S1): 0.244
Sdcbp protein fold change (B16-F10 cells; 6 mM vs control, Table S1): 0.4883
Serac1 protein fold change (B16-F10 cells; 6 mM vs control, Table S1): 2.052
Sfpq protein fold change (B16-F10 cells; 6 mM vs control, Table S1): 2.482
Sgce protein fold change (B16-F10 cells; 6 mM vs control, Table S1): 0.4392
Slc2a6 protein fold change (B16-F10 cells; 6 mM vs control, Table S1): 0.4306
Slc4a2 protein fold change (B16-F10 cells; 6 mM vs control, Table S1): 0.48
Slc7a1 protein fold change (B16-F10 cells; 6 mM vs control, Table S1): 0.4712
Slc24a5 protein fold change (B16-F10 cells; 6 mM vs control, Table S1): 0.4286
Slc35b2 protein fold change (B16-F10 cells; 6 mM vs control, Table S1): 0.3476
Slc38a2 protein fold change (B16-F10 cells; 6 mM vs control, Table S1): 0.3733
Slc45a2 protein fold change (B16-F10 cells; 6 mM vs control, Table S1): 0.451
Sparcl1 protein fold change (B16-F10 cells; 6 mM vs control, Table S1): 0.4926
Syt4 protein fold change (B16-F10 cells; 6 mM vs control, Table S1): 0.3106
Tagln2 protein fold change (B16-F10 cells; 6 mM vs control, Table S1): 0.2815
Tgoln1 protein fold change (B16-F10 cells; 6 mM vs control, Table S1): 0.479
Tial1 protein fold change (B16-F10 cells; 6 mM vs control, Table S1): 2.492
Tmed1 protein fold change (B16-F10 cells; 6 mM vs control, Table S1): 0.4801
Tmem14c protein fold change (B16-F10 cells; 6 mM vs control, Table S1): 4.332
Tmem59 protein fold change (B16-F10 cells; 6 mM vs control, Table S1): 0.233
Tmem176a protein fold change (B16-F10 cells; 6 mM vs control, Table S1): 0.2277
Tmem176b protein fold change (B16-F10 cells; 6 mM vs control, Table S1): 0.171
Trib3 protein fold change (B16-F10 cells; 6 mM vs control, Table S1): 2.531
Try10 protein fold change (B16-F10 cells; 6 mM vs control, Table S1): 0.2906
Tspan3 protein fold change (B16-F10 cells; 6 mM vs control, Table S1): 0.3162
Tspan10 protein fold change (B16-F10 cells; 6 mM vs control, Table S1): 0.3282
Tubb4a protein fold change (B16-F10 cells; 6 mM vs control, Table S1): 3.655
Tyrp1 protein fold change (B16-F10 cells; 6 mM vs control, Table S1): 0.3578
U2af1l4 protein fold change (B16-F10 cells; 6 mM vs control, Table S1): 2.0208
Ube2j1 protein fold change (B16-F10 cells; 6 mM vs control, Table S1): 0.3514
Ubl3 protein fold change (B16-F10 cells; 6 mM vs control, Table S1): 0.2819
Zbtb3 protein fold change (B16-F10 cells; 6 mM vs control, Table S1): 2.269
env protein fold change (B16-F10 cells; 6 mM vs control, Table S1): 0.4886
il6st protein fold change (B16-F10 cells; 6 mM vs control, Table S1): 0.4117
p53 (Fragment) (A6YM30) protein fold change (B16-F10 cells; 6 mM vs control, Table S1): 3.222
regulation of MMP9 or PPARG (B16-F10 cells; mouse B16-F10 cells, proteomic analysis): did not significantly downregulate
inhibition at 6000 µM (mushroom tyrosinase): > 80%
